# Assay results published in ChEMBL document CHEMBL5620422, “Design, synthesis, and biological evaluation of a series of new anthraquinone derivatives as anti-ZIKV agents” (Eur J Med Chem, 2023).
# The source made the active and inactive calls. No cut-off for these calls is given here.
# Columns and labels:
# Zika virus [1] = assay: Antiviral activity against ZIKV ZG-01 infected in human JEG-3 cells assessed as reduction in LDH release incubated for 36 hrs; format: functional, organism-based; conditions: dose 1-5 µM
# Zika virus [2] = assay: Antiviral activity against ZIKV ZG-01 infected in human SNB-19 cells assessed as reduction in IFNgamma expression at 1 to 5 uM by RT-PCR analysis; format: functional, organism-based; conditions: dose 1-5 µM
# Zika virus [3] = assay: Antiviral activity against ZIKV ZG-01 infected in Ifnar1 knockout C57BL/6 mouse assessed as reduction in astrocytes activation by measuring GFAP expression at 20 mg/kg, iv administered daily for 7 days by immunohistochemistry analysis; format: functional, organism-based; conditions: time 7.0 day
# JEG-3 [4] = assay: Antiinflammatory activity in human JEG-3 cells assessed as reduction in IL-6 expression by RT-PCR analysis; format: functional, cell-based
# NS5 = NS5 (Zika virus, UniProt A0A143MHK7); assay: Binding affinity to ZIKV RdRP by SPR assay
# Sequence of NS5 (A0A143MHK7 whole entry): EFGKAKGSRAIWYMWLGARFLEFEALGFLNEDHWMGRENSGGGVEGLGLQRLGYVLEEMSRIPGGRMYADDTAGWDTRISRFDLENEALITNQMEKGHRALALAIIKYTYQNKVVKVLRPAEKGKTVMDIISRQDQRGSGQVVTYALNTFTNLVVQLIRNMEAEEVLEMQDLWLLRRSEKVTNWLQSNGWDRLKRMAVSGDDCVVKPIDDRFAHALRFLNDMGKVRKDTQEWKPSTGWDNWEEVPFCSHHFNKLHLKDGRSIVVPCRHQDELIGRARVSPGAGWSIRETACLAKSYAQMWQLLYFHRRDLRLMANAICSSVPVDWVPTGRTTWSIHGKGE
# Zika virus [5] = assay: Antiviral activity against ZIKV ZG-01 infected in human SNB-19 cells assessed as reduction in IL-6 expression at 1 to 5 uM by RT-PCR analysis; format: functional, organism-based; conditions: dose 1-5 µM
# Zika virus [6] = assay: Antiviral activity against ZIKV ZG-01 infected in Ifnar1 knockout C57BL/6 mouse assessed as increase in animal survival at 20 mg/kg, iv administered daily for 7 days; format: functional, organism-based; conditions: time 7.0 day
# Zika virus [7] = assay: Antiviral activity against ZIKV ZG-01 infected in Ifnar1 knockout C57BL/6 mouse assessed as reduction in number of animal paralysis at 20 mg/kg, iv administered daily for 7 days; format: functional, organism-based; conditions: time 7.0 day
# Zika virus [8] = assay: Antiviral activity against ZIKV ZG-01 infected in human SNB-19 cells assessed as reduction in GSDME cleavage by Western blot analysis; format: functional, organism-based; conditions: dose 1-20 µM
# [9] = Toxicity in Ifnar1 knockout C57BL/6 mouse assessed as movement disorders at 60 mg/kg administered for 7 days; format: organism-based; conditions: in vivo, 168 h, time 7 day
# Zika virus [10] = assay: Antiviral activity against ZIKV ZG-01 infected in JEG-3 cells assessed as reduction in viral envelope protein expression at 5 uM by immunofluorescence assay; format: functional, organism-based
# HEK293T = assay: Inhibition of ZIKV RNA polymerase NS5 expressed in HEK293T cells co-transfected with Gluc-reporter gene at 20 uM incubated for 24 hrs by Dual-glo luminescence assay; format: cell-based; conditions: Zika virus
# Zika virus [11] = assay: Antiviral activity against ZIKV ZG-01 infected in human JEG-3 cells assessed as reduction in IL-1beta release at 1 to 5 uM by ELISA; format: functional, organism-based; conditions: dose 1-5 µM
# Zika virus [12] = assay: Antiviral activity against ZIKV ZG-01 infected in human JEG-3 cells assessed as reduction in TNFalpha expression at 1 to 5 uM by RT-PCR analysis; format: functional, organism-based; conditions: dose 1-5 µM
# Zika virus [13] = assay: Antiviral activity against ZIKV ZG-01 infected in SNB-19 cells assessed as reduction in viral replication at 20 uM preincubated for 1 hr followed by replacement with fresh media containing compound for 48 hrs by RT-PCR analysis; format: functional; parameters: scale not given: the % may be the effect or the level left; conditions: time 49 hrs
# JEG-3 [14] = assay: Antiinflammatory activity in human JEG-3 cells assessed as reduction in IL-1beta expression by RT-PCR analysis; format: functional, cell-based
# Zika virus [15] = assay: Antiviral activity against ZIKV ZG-01 infected in Ifnar1 knockout C57BL/6 mouse assessed as reduction in mortality rate at 20 mg/kg, iv administered daily for 7 days; format: functional, organism-based; conditions: time 7.0 day
# JEG-3 [16] = assay: Antiinflammatory activity in human JEG-3 cells assessed as reduction in TNFalpha expression by RT-PCR analysis; format: functional, cell-based
# Zika virus [17] = assay: Antiviral activity against ZIKV ZG-01 infected in human JEG-3 cells assessed as reduction in GSDME cleavage by Western blot analysis; format: functional, organism-based; conditions: dose 1-20 µM
# Zika virus [18] = assay: Antiviral activity against ZIKV ZG-01 infected in human JEG-3 cells assessed as reduction in cell pyroptosis; format: functional, organism-based
# [19] = Cytotoxicity against human A549 cells assessed as reduction in cell viability incubated for 48 hrs by MTT assay; format: toxicity, cell-based
# Zika virus [20] = assay: Antiviral activity against ZIKV ZG-01 infected in human JEG-3 cells assessed as reduction in IFNgamma expression at 1 to 5 uM by RT-PCR analysis; format: functional, organism-based; conditions: dose 1-5 µM
# Zika virus [21] = assay: Antiviral activity against ZIKV ZG-01 infected in JEG-3 cells assessed as reduction in viral envelope protein level at 10 uM after 18 to 48 hrs by Western blot assay; format: functional, organism-based; conditions: time 18-48 hrs
# Zika virus [22] = assay: Antiviral activity against ZIKV ZG-01 infected in SNB-19 cells assessed as reduction in viral envelope protein expression at 5 uM by immunofluorescence assay; format: functional, organism-based
# SNB-19 = assay: Antiinflammatory activity in human SNB-19 cells assessed as reduction in TNFalpha expression by RT-PCR analysis; format: functional, cell-based
# HEK-293T = assay: Effect on gaussia luciferase expression in HEK293T cells at 1 to 10 uM; format: functional, cell-based; conditions: Homo sapiens, dose 1-10 µM
# Zika virus [23] = assay: Antiviral activity against ZIKV ZG-01 infected in SNB-19 cells assessed as reduction in viral envelope protein level at 10 uM after 18 to 48 hrs by Western blot assay; format: functional, organism-based; conditions: time 18-48 hrs
# Zika virus [24] = assay: Antiviral activity against ZIKV ZG-01 infected in human JEG-3 cells assessed as reduction in IL-1beta expression at 1 to 5 uM by RT-PCR analysis; format: functional, organism-based; conditions: dose 1-5 µM
# Zika virus [25] = assay: Antiviral activity against ZIKV ZG-01 infected in SNB-19 cells preincubated for 1 hr followed by replacement with fresh media containing compound for 48 hrs by crystal violet staining based plaque assay; format: functional
structure (smiles),measurement,setting,value
C[C@]1(O)CC2=C(C[C@@]1(C)O)C(=O)c1c(O)cc(N3CCC(c4ccccc4)CC3)c(O)c1C2=O,Activity,Zika virus [1],Dose-Dependent Effect
same,Activity,Zika virus [2],Active
same,Activity,Zika virus [3],Active
same,Activity,JEG-3 [4],inactive
same,Kd,NS5,10.4 µM
same,Activity,Zika virus [5],Active
same,Activity,Zika virus [6],Active
same,Activity,Zika virus [7],Active
same,Activity,Zika virus [8],Dose-Dependent Effect
same,Activity,[9],Non-Toxic
same,Activity,Zika virus [10],Active
same,inhibition,HEK293T,Dose-Dependent Effect
same,Activity,Zika virus [11],Active
same,Activity,Zika virus [12],Active
same,Activity,Zika virus [13],100%
same,Activity,JEG-3 [14],inactive
same,Activity,Zika virus [15],Active
same,Activity,JEG-3 [16],inactive
same,Activity,Zika virus [17],Dose-Dependent Effect
same,Activity,Zika virus [18],Active
same,CC50 at 48 h,[19],> 50 µM
same,Activity,Zika virus [20],Active
same,Activity,Zika virus [21],Active
same,Activity,Zika virus [22],Active
same,Activity,SNB-19,inactive
same,Activity,HEK-293T,inactive
same,Activity,Zika virus [23],Active
same,Activity,Zika virus [24],Active
same,EC90,"Zika virus [25]; ZG-01, SNB-19, time 49 hrs",6.4 µM
same,Activity,Zika virus [25]; time 49.0 hrs,Dose-Dependent Effect
